Experimental data reported in patent US10464967B2, “Non-hormonal steroid modulators of NF-κβ for treatment of disease” (Reveragen Biopharma, Inc., priority 2011, dated 2019).

Legend:
[1] = system: DBA/1 mice; experiment: Collagen antibody induced arthritis (CAIA) model; format: in vivo, mouse; conditions: for Mean clinical severity score / Reduction as compared with vehicle-treated mice: prednisone 5 mg/kg, Example 9 20 mg/kg oral
Experimental: On day 1, DBA/1 mice (Jackson Labs, Bar Harbor, Me.) received an intraperitoneal (i.p.) injection of 2 mg of monoclonal antibody cocktail specific for collagen (CII) (MD Biosciences, St. Paul, Minn.). Two days later (day 3), mice received an i.p. injection of 100 μg of lipopolysaccharide (LPS). Mean clinical severity of CAIA was determined using a macroscopic clinical severity scoring system every 2-3 days by three individuals until the end of the experiment (day 14 post antibody cocktail injection). The scoring criteria was performed as follows: 0: No signs of disease; 1: Mild redness and/or swelling of one digit; 2: Redness and/or swelling of 2 digits; 3: Redness and/or swelling of more than 2 digits; 4: Redness and swelling of entire paw.
For intervention studies, mice (n=10) received an oral dose of 20 mg/kg of the compound of Example 9 suspended in cherry syrup (30 μl total volume) on day 0 through day 14. Additional groups of mice (n=10) received 5 mg/kg of prednisone in cherry syrup as a positive control, or cherry syrup alone as a negative control. On day 14, animals were sacrificed via CO2 exposure. Statistical analysis was performed using a two-way ANOVA followed by a Bonferroni post-hoc test.

[2] = system: mdx mice; experiment: In vivo mdx mouse model of dystrophy
Experimental: Separate groups (n=12-14) of mdx mice were treated with prednisolone (5 mg/kg/day; per oral in feed), Example 1 (20 and 40 mg/kg/day; per oral in feed) and Example 2 (20 and 40 mg/kg/day; per oral in feed) for 3 months. All mice underwent 30 min biweekly treadmill exercise during the treatment duration to unmask the mild disease phenotype of mdx mouse model.
Motor coordination and strength were assessed using Rota-rod (Ugo Basile, VA, Italy) testing. Briefly, mice were trained on the rota-rod for two days before collecting data. Each acclimatization session consisted of four training sessions, 2 per day and each session lasting 120 seconds at a speed of 5 rpm). Each trial consisted of placing the mice on the rod at 10 rpm for 60 seconds (stabilizing period) followed by an acceleration from 10 rpm to 40 rpm within the first 25 seconds until the animal fell from the rod or until 180 seconds are reached. If the animals fell during the stabilizing period, they were placed back on the rod to complete the session. The total testing time was 240 seconds (60 seconds stabilization time and 180 seconds test time). Each trial was performed twice a day (2 hour interval between sessions) for 3 consecutive days. The latency to fall (seconds) was recorded and all six scores were averaged per mouse. The average data was expressed as latency to fall (in seconds) for each group mice at 3 age groups.
The distal tendon of the extensor digitorum longus (EDL) muscle was tied securely to the lever arm of a servomotor/force transducer (model 305B, Aurora Scientific, Richmond Hill, ON, Canada) and the proximal tendon to a tissue clamp. Muscles were stimulated between two platinum electrodes. […] With the muscle held at Lo using stimulation frequencies of 30, 50, 80, 100, 120 and 150 Hz, the maximum isometric tetanic force (Po) developed during a 300 ms train of stimulation pulses was recorded for the EDL muscle. The muscle length was then measured with calipers and after removal of the muscle from the bath the mass of the muscle was determined. For each muscle, the optimum fiber length (Lf) was calculated by multiplying Lo by a previously determined Lf/Lo ratio of 0.45. Total muscle fiber cross-sectional area was determined by dividing the wet mass by the product of Lf and the density of mammalian skeletal muscle (1.06 mg/mm^3). Maximum isometric specific force (sPo) was determined by dividing Po by the total muscle fiber cross-sectional area.

[3] = system: C57BL/6 mice; experiment: Mouse carrageenan-induced paw edema model; format: in vivo; conditions: 10, 20, 40 mg/kg in cherry syrup; 5 hours after carrageenan
Experimental: Female C57BL/6 mice (n=5 per group) were administered prednisone (5 mg/kg) and the compound of Example 9 (10, 20, 40 mg/kg) in cherry syrup. 24 hours later, drugs and vehicle control (syrup) were administered again. 2 hours later, mice were anesthetized, paw thickness was measured with a caliper to obtain a baseline value, and 1% carrageenan was injected subcutaneously in the subplantar region of the right hind paw. Mice were sacrificed 5 hours later and paw edema was measured via caliper. Change in thickness was calculated by subtracting baseline value from post-carrageenan injection value. Statistical analysis was performed using a Student's T-test.

[4] = system: mice; experiment: OVA-induced mouse model of acute allergic asthma; format: in vivo; conditions: 20 mg/kg oral on days 6-11
Experimental: The model used in the current studies has been previously described (Gwinn et al. 2006; Balsley et al. 2010). Briefly, mice were primed via intraperitoneal (i.p) injection with 50 μg of OVA in PBS with 100 μl of alum (200 μl total volume per mouse) on day 0. OVA-primed mice were challenged under light anesthesia (isoflurane) by intranasal delivery of 100 μg of OVA in PBS on days 7-10. Mice were sacrificed via CO2 exposure on day 12 for analysis.
For in vivo intervention studies, mice (n=5) received an oral dose of 20 mg/kg of the compound of Example 9 suspended in cherry syrup (30 μl total volume) on days 6-11. Additional groups of mice (n=5) received 5 mg/kg of prednisone in cherry syrup as a positive control, or cherry syrup alone as a negative control. Following sacrifice on day 12, leukocytes were collected from the airways via bronchoalveolar lavage (BAL). For this procedure, a cannula was inserted into the trachea and two 1 ml washes of cold PBS were infused in and out of the airways. […]
BAL and lung tissue cells were treated with ammonium chloride lysis buffer to remove red blood cells. The remaining leukocytes were then counted and stained for FACS analysis with a combination of PE-Cy5-anti-mouse CD4 and FITC-anti-mouse CD62L to identify effector/memory CD4+ cells (CD4+/CD62L−). […]

[5] = 20 and 40 mg/kg/day for 3 months, vs untreated and prednisolone treated

Row | SMILES | Mean clinical severity score ([1]; Day 7) | Reduction as compared with vehicle-treated mice ([1]; Day 7) [%] | Mean clinical severity score ([1]; Day 9) | Reduction as compared with vehicle-treated mice ([1]; Day 9) [%] | Mean clinical severity score ([1]; Day 11) | Reduction as compared with vehicle-treated mice ([1]; Day 11) [%] | Mean clinical severity score ([1]; Day 14) | Reduction as compared with vehicle-treated mice ([1]; Day 14) [%] | Histology (H&E) of gastrocnemius muscle [2, 5] | other results
1 | C[C@]12C=CC(=O)C=C1CC[C@@H]1[C@@H]2C(=O)C[C@@]2(C)[C@H]1CC[C@]2(O)C(=O)CO [Prednisone, reference compound] | 2.4 ± 0.68 | 69.8 | 1.5 ± 0.27 | 69.8 | 2.9 ± 0.39 | 69.1 | 0.7 ± 0.3 | 88.7 | – | –
2 | C[C@]12C=CC(=O)C=C1CC[C@@H]1[C@@H]2[C@@H](O)C[C@@]2(C)[C@H]1CC[C@]2(O)C(=O)CO [Prednisolone] | – | – | – | – | – | – | – | – | – | Body weight vs untreated mice ([2]; 5 mg/kg/day per oral in feed, 33.8 weeks age): significantly lower body weight; Histology (H&E) of gastrocnemius muscle ([2]; continuous prednisolone 5 mg/kg/day): appeared to increase degeneration and decrease in regeneration of dystrophic skeletal muscle; EDL specific force vs untreated ([2]; prednisolone 5 mg/kg/day): no statistically significant (P<0.05) difference in specific force
3 | C[C@]12CCC(=O)C=C1CCC1C2=CC[C@@]2(C)C1CC[C@]2(O)C(=O)CO (stereo partly drawn) [Example 1, (10S,13S,17R)-17-hydroxy-17-(2-hydroxyacetyl)-10,13-dimethyl-6,7,8,10,12,13,14,15,16,17-decahydro-1H-cyclopenta[a]phenanthren-3(2H)-one] | – | – | – | – | – | – | – | – | significant decrease in inflammation, degeneration, and increase in regenerating muscle fibers | –
4 | C[C@@H]1CC2C3CCC4=CC(=O)C=C[C@]4(C)C3=CC[C@]2(C)[C@@]1(O)C(=O)CO (stereo partly drawn) [Example 9, (10S,13S,16R,17R)-17-hydroxy-17-(2-hydroxyacetyl)-10,13,16-trimethyl-6,7,8,10,12,13,14,15,16,17-decahydro-3H-cyclopenta[a]phenanthren-3-one] | 4.5 ± 0.95 | 43.8 | 5.0 ± 0.77 | 35.5 | 5.6 ± 0.82 | 41.3 | 3.1 ± 0.69 | 50 | – | Carrageenan-induced paw edema [3]: effective at reducing mouse paw edema induced by carrageenan; Parameters of acute allergic lung inflammation (leukocyte infiltration, mucus production) [4]: effective at improving parameters of acute allergic lung inflammation; Collagen antibody induced arthritis ([1]; 20 mg/kg oral, day 0 through day 14): effective at reducing collagen antibody induced arthritis
5 | C[C@]12C=CC(=O)C=C1CCC1C2=CC[C@@]2(C)C1CC[C@]2(O)C(=O)CO (stereo partly drawn) [Example 2, (10S,13S,17R)-17-hydroxy-17-(2-hydroxyacetyl)-10,13-dimethyl-6,7,8,10,12,13,14,15,16,17-decahydro-3H-cyclopenta[a]phenanthren-3-one] | – | – | – | – | – | – | – | – | significant decrease in inflammation, degeneration, and increase in regenerating muscle fibers | –
